In PMC6220303 (EMBO Molecular Medicine, 2018):
Where two headings read alike, the source gives them in different places.

Key:
[1] = pKa determination; type: physicochemical; settings: cyclic amidine
Experimental: Cellular Aβ release assays were done in CHO cells stably transfected with human wild‐type and human APP were done as described (Neumann et al, 2015). Determinations of logD, pKa, and binding to brain homogenates were done internally at Novartis, Basel. Plasma protein binding was determined by equilibrium dialysis using diluted plasma from the corresponding species. MDR‐1‐MDCK cells were obtained from Prof. A. Berns, Netherlands Cancer Institute, Amsterdam NL, and bi‐directional transport measurements were done as described (Rueeger et al, 2011). Receptor binding assays were done against an internal receptor panel and externally at Ricerca Biosciences, Peitou, Taiwan. In vitro binding and cellular patch clamp assays for hERG were done at Preclinical Safety, Novartis, Basel.

[2] = type: in vivo; settings: rat, 15.4 mg/kg oral
[3] = clinical; type: in vivo, human; settings: for Mean concentration: AUC divided by 24 hours; for Tmax / Cmax / AUC(0-t) / half-life / concentration at 3 months / AUC(0-inf): human, plasma, oral; for concentration at 3 months: read-out: steady-state plasma level
Experimental: The lower limit of quantification (LLOQ) was 1 ng/ml in plasma and 2 ng/ml in urine and CSF, except for the 3‐month study where the method for CSF was more sensitive (LLOQ 0.1 ng/ml). Plasma PK parameters were calculated using actual recorded sampling times and non‐compartmental methods with Phoenix WinNonlin version 6.4 (Certara, Inc., Princeton, NJ, USA).
For further details, see the Appendix Table S10 in Appendix and the accompanying clinical protocols synopsis (Appendix Table S11).

C[C@@]1(c2nc(NC(=O)c3ncc(C(F)(F)F)cc3Cl)ccc2F)CO[C@@](C)(C(F)(F)F)C(N)=N1 [CNP520]
pKa [1]: 7.2
peak concentration of unbound CNP520 in the brain [2]: 50 nM
Mean concentration ([3]; 2 mg, 3 months, Day 91): 25.6 nM
Mean concentration ([3]; 10 mg, 3 months, Day 91): 123 nM
Mean concentration ([3]; 10 mg, 14 days, Day 14): 114 nM
Mean concentration ([3]; 30 mg, 14 days, Day 14): 292 nM
Mean concentration ([3]; 35 mg, 3 months, Day 91): 371 nM
Mean concentration ([3]; 85 mg, 3 months, Day 91): 910 nM
Mean concentration ([3]; 90 mg, 14 days, Day 14): 762 nM
Mean concentration ([3]; 300 mg, 14 days, Day 14): 2312 nM
Tmax ([3]; both sexes, 30 mg, 14 days, Day 14, median (min–max)): 3 h
Cmax ([3]; both sexes, 30 mg, 14 days, Day 14, ≥ 60 years, mean (CV%)): 211 ng/mL
AUC(0-t) ([3]; both sexes, 30 mg, AUC 0–24h, 30 mg, 14 days, Day 14, mean (CV%)): 3580 ng·h/mL
half-life ([3]; both sexes, participants ≥ 60 years of age, single dose, read-out: mean terminal T 1/2): 81.4 to 109 h
concentration at 3 months ([3]; both sexes, 2-mg dose daily, participants ≥ 60 years): 11.9 ng/mL
concentration at 3 months ([3]; both sexes, 2-mg dose daily): 23 nM
concentration at 3 months ([3]; both sexes, 85-mg dose daily, participants ≥ 60 years): 425 ng/mL
concentration at 3 months ([3]; both sexes, 85-mg dose daily): 828 nM
free C max ([3]; human plasma, 85 mg, 3-month study): 48 nM
Tmax ([3]; 2 mg, 3 months, Day 91, median (min–max)): 2.5 h
Cmax ([3]; 2 mg, 3 months, Day 91, ≥ 60 years, mean (CV%)): 16.6 ng/mL
AUC(0-t) ([3]; 2 mg, AUC 0–24h, 2 mg, 3 months, Day 91, mean (CV%)): 313 ng·h/mL
Tmax ([3]; 10 mg, 3 months, Day 91, median (min–max)): 2.5 h
Cmax ([3]; 10 mg, 3 months, Day 91, ≥ 60 years, mean (CV%)): 81 ng/mL
Tmax ([3]; 10 mg, 14 days, Day 14, median (min–max)): 2.53 h
Cmax ([3]; 10 mg, 14 days, Day 14, ≥ 60 years, mean (CV%)): 84.3 ng/mL
AUC(0-t) ([3]; 10 mg, AUC 0–24h, 10 mg, 3 months, Day 91, mean (CV%)): 1500 ng·h/mL
AUC(0-t) ([3]; 10 mg, AUC 0–24h, 10 mg, 14 days, Day 14, mean (CV%)): 1400 ng·h/mL
Cmax ([3]; 10 mg, single dose 10 mg, adults (6), mean (%CV), read-out: Cmax): 20.9 ng/mL
Tmax ([3]; 10 mg, single dose 10 mg, adults (6), median (min–max), read-out: Tmax): 4 h
AUC(0-inf) ([3]; 10 mg, single dose 10 mg, adults (n = 5), mean (%CV)): 948 ng·h/mL
half-life ([3]; 10 mg, single dose 10 mg, adults (n = 5), mean (%CV), read-out: T1/2 (converted)): 61.3 h
Cmax ([3]; 10 mg, single dose 10 mg, adults ≥ 60 years (6), mean (%CV), read-out: Cmax): 16 ng/mL
Tmax ([3]; 10 mg, single dose 10 mg, adults ≥ 60 years (6), median (min–max), read-out: Tmax): 4.02 h
AUC(0-inf) ([3]; 30 mg, single dose 30 mg, adults (12), mean (%CV)): 3070 ng·h/mL
Cmax ([3]; 30 mg, single dose 30 mg, adults (12), mean (%CV), read-out: Cmax): 65.7 ng/mL
half-life ([3]; 30 mg, single dose 30 mg, adults (12), mean (%CV), read-out: T1/2 (converted)): 64.3 h
Tmax ([3]; 30 mg, single dose 30 mg, adults (12), median (min–max), read-out: Tmax): 3.5 h
Tmax ([3]; 35 mg, 3 months, Day 91, median (min–max)): 2.5 h
Cmax ([3]; 35 mg, 3 months, Day 91, ≥ 60 years, mean (CV%)): 237 ng/mL
AUC(0-t) ([3]; 35 mg, AUC 0–24h, 35 mg, 3 months, Day 91, mean (CV%)): 4450 ng·h/mL
AUC(0-t) ([3]; 75 mg, AUC 0–72h, food effect, 75 mg Fasted (10), adults, mean (%CV)): 4450 ng·h/mL
AUC(0-t) ([3]; 75 mg, AUC 0–72h, food effect, 75 mg Fed (10), adults, mean (%CV)): 4870 ng·h/mL
Cmax ([3]; 75 mg, food effect, 75 mg Fasted (10), adults, mean (%CV), read-out: Cmax): 164 ng/mL
Tmax ([3]; 75 mg, food effect, 75 mg Fasted (10), adults, median (min–max), read-out: Tmax): 3.5 h
Cmax ([3]; 75 mg, food effect, 75 mg Fed (10), adults, mean (%CV), read-out: Cmax): 179 ng/mL
Tmax ([3]; 75 mg, food effect, 75 mg Fed (10), adults, median (min–max), read-out: Tmax): 4.04 h
Tmax ([3]; 85 mg, 3 months, Day 91, median (min–max)): 2.5 h
